Laboratory results as given in article PMC6458983 (Cancer Chemotherapy and Pharmacology, 2019).
Where two headings read alike, the source gives them in different places. Marks after values point to notes of the source that are not given here.

Key:
[1] = tested on: Japanese patients with NSCLC
Protocol: Area under the plasma concentration–time curve from 0 to 24 h (AUC0–24) and maximum plasma concentrations (Cmax) were calculated using empirical Bayesian estimates of pharmacokinetic parameters in the final population pharmacokinetic model. AUC0–24 and Cmax were chosen as exposure metrics. The incidence of ILD was summarized for four exposure levels, defined using exposure quartiles after a single dose and at steady state, respectively.
After a single dose, predicted pharmacokinetic values were available for all 51 patients with ILD and all 285 patients without ILD. […] Each pharmacokinetic parameter was quartiled separately.

[2] = tested on: Japanese patients with NSCLC; assay: Multivariate logistic regression of ILD with gefitinib exposure and other risk factors; type: in vivo; settings: for OR estimate (95% CI) for acute ILD: Age (≥55 vs <55 years): gefitinib-treated patients
Protocol: Patients with and without ILD, in whom pharmacokinetic measurements were available, were included in this analysis. […] A multivariate logistic regression model was used in this analysis; the analysis was performed using SAS version 9.3. […] In addition, the interaction of smoking history and normal lung coverage, and the interaction of the severity of pre-existing ILD and normal lung coverage were also studied. In addition, pharmacokinetic exposure parameters were divided into four quartiles (see “Results”) and investigated as risk factors. For association with ILD risk, the mid-1, mid-2, and high-exposure groups were compared with the low-exposure group.

CYP3A4 = settings: in vitro and in vivo studies; cited from earlier work
[3] = cited from earlier work
[4] = sustained elevation of gastric pH; cited from earlier work
[5] = Population pharmacokinetic analysis of gefitinib plasma concentrations (NONMEM, one-compartment model); type: in vivo, Japanese patients with NSCLC
Protocol: Six blood samples were taken from each patient at 1–3, 3–8, and 24 h after first treatment dosing (Day 1) and at steady state (Days 10–15). In addition, blood samples were taken from each patient with ILD, if possible, when ILD developed. […] In total, data for 1891 plasma concentrations taken from 336 patients were used for population pharmacokinetic modeling.
When estimating the exposure at first dosing and at steady state, time-dependent pharmacokinetics were not assumed. Thus, both exposures at first dosing and steady state can be theoretically derived if at least one plasma concentration at either first dosing or steady state is available. Individual exposures were predicted based on patients’ dosing history, assuming steady state at 144 h after the first dosing. […] Serum concentration of AGP were likewise determined at first dosing and at steady state.
The population pharmacokinetic analysis was performed using the non-linear mixed-effect modeling (NONMEM) program version V level 1.1 with the PREDPP library and the NM-TRAN pre-processor (GloboMax LLC, Hanover, MD, USA). Full details of the population pharmacokinetic model development and analysis are described in the Online Resource.
The population pharmacokinetic analysis was performed using the NONMEM program version V level 1.1 with the PREDPP library and the NM-TRAN pre-processor (GloboMax LLC, Hanover, MD).
Following preliminary modeling to build a base model, log-transformed plasma concentrations were used for the analysis, and a one-compartment model after first-order absorption with lag-time was selected as the structural model. The first-order method was adopted as an approximation in integral of marginal likelihood. The inter-individual variability on pharmacokinetic parameters was described using an exponential error model, and the intra-individual variability on log-transformed plasma concentration was described using an additive error model.
The covariate model was developed based on the forward addition method and the backward deletion method. Continuous covariates such as body weight, age, sex, α1-acid glycoprotein (AGP), serum albumin, total protein, aspartate aminotransferase, alanine aminotransferase, alkaline phosphatase, total bilirubin, and creatinine clearance were tested using a power model centered on the mean value.
Categorical covariates included were age group (<65 years or ≥65 years), concomitant use of cytochrome P450 3A4 (CYP3A4) inducers, concomitant use of CYP3A4 inhibitors, and concomitant use of proton pump inhibitors and/or H2 antagonists. In addition, interstitial lung disease (ILD) status (i.e. “patients with ILD” vs “patients without ILD”) and ILD period (i.e. “at times other than ILD development” vs “at the time of ILD development”) were tested using a productive multiplicative model with the discrete variable (0 or 1).
χ^2 tests with one degree of freedom based on the objective function value (OFV) in NONMEM, which corresponds to -2-fold of log-likelihood, were used for developing the covariate model, and the adopted statistically significant levels were p=0.05 (ΔOFV=3.84) and p=0.001 (ΔOFV=10.83) when a covariate was included and excluded from the pharmacokinetic model, respectively.
Goodness-of-fit plots were used for diagnosis of the final model. The robustness of the final model was evaluated by a randomized non-stratified bootstrap technique with 200 resampling datasets, and model predictability was examined by visual predictive check.

[6] = after a single dose, third-quartile cut-off of predicted exposure
[7] = Analysis 1 (PK parameter AUC0–24, single dose)
[8] = Analysis 1, gefitinib exposure after a single dose
[9] = Analysis 2 (PK parameter AUC0–24,ss)
[10] = Analysis 2, gefitinib exposure at steady state
[11] = Analysis 3 (PK parameter Cmax, single dose)
[12] = Analysis 3, gefitinib exposure after a single dose
[13] = Analysis 4 (PK parameter Cmax,ss)
[14] = Analysis 4, gefitinib exposure at steady state

## COc1cc2ncnc(Nc3ccc(F)c(Cl)c3)c2cc1OCCCN1CCOCC1 [gefitinib]
[1]; after a single dose, AUC0–24 Quartile 1
  Proportion of patients with ILD, by AUC quartile: 11.9%
[1]; after a single dose, AUC0–24 Quartile 2
  Proportion of patients with ILD, by AUC quartile: 8.3%
[1]; after a single dose, AUC0–24 Quartile 3
  Proportion of patients with ILD, by AUC quartile: 8.3%
[1]; after a single dose, AUC0–24 Quartile 4
  Proportion of patients with ILD, by AUC quartile: 32.1%
[1]; after a single dose, Cmax Quartile 1
  Proportion of patients with ILD, by Cmax quartile: 11.9%
[1]; after a single dose, Cmax Quartile 2
  Proportion of patients with ILD, by Cmax quartile: 8.3%
[1]; after a single dose, Cmax Quartile 3
  Proportion of patients with ILD, by Cmax quartile: 9.5%
[1]; after a single dose, Cmax Quartile 4
  Proportion of patients with ILD, by Cmax quartile: 31.0%
[1]; [6]
  AUC0–24 lower than or equal to the third quartile: ≤ 3855 ng·h/mL
  Cmax lower than or equal to the third quartile: ≤ 207 ng/mL
[1]; at steady state, AUC0–24,ss Quartile 1
  Proportion of patients with ILD, by AUC quartile: 5.1%
[1]; at steady state, AUC0–24,ss Quartile 2
  Proportion of patients with ILD, by AUC quartile: 7.8%
[1]; at steady state, AUC0–24,ss Quartile 3
  Proportion of patients with ILD, by AUC quartile: 15.4%
[1]; at steady state, AUC0–24,ss Quartile 4
  Proportion of patients with ILD, by AUC quartile: 14.3%
[1]; at steady state, Cmax,ss Quartile 1
  Proportion of patients with ILD, by Cmax quartile: 6.4%
[1]; at steady state, Cmax,ss Quartile 2
  Proportion of patients with ILD, by Cmax quartile: 6.5%
[1]; at steady state, Cmax,ss Quartile 3
  Proportion of patients with ILD, by Cmax quartile: 17.9%
[1]; at steady state, Cmax,ss Quartile 4
  Proportion of patients with ILD, by Cmax quartile: 11.7%
[2]; [7]
  OR estimate (95% CI) for acute ILD: Duration of NSCLC ≥1 vs <0.5 years: 0.37 (0.14–0.95)
  OR estimate (95% CI) for acute ILD: Interaction of pre-existing IP and normal lung coverage: 0.37 (0.02–6.82)
  OR estimate (95% CI) for acute ILD: Interaction of smoking history and normal lung coverage: 0.6 (0.09–4.12)
  OR estimate (95% CI) for acute ILD: Normal lung coverage (10%–50% vs 60%–100%): 3.39 (0.63–18.31)
  OR estimate (95% CI) for acute ILD: Pre-existing IP (yes vs no): 4.01 (0.37–43.22)
  OR estimate (95% CI) for acute ILD: WHO performance status 1 vs 0: 0.59 (0.2–1.68)
  OR estimate (95% CI) for acute ILD: WHO performance status 2–3 vs 0: 1.75 (0.48–6.33)
  OR estimate (95% CI) for acute ILD: Age (≥55 vs <55 years): 1.86 (0.5–6.88)
[2]; [8]
  OR estimate (95% CI) for acute ILD: AUC0–24 Quartile 2 vs Quartile 1: 0.68 (0.2–2.32)
  OR estimate (95% CI) for acute ILD: AUC0–24 Quartile 3 vs Quartile 1: 0.62 (0.18–2.12)
  OR estimate (95% CI) for acute ILD: AUC0–24 Quartile 4 vs Quartile 1: 3.35 (1.14–9.88)
[2]; [9]
  OR estimate (95% CI) for acute ILD: Duration of NSCLC ≥1 vs <0.5 years: 0.57 (0.19–1.69)
  OR estimate (95% CI) for acute ILD: Interaction of pre-existing IP and normal lung coverage: 0.25 (0.01–6.8)
  OR estimate (95% CI) for acute ILD: Interaction of smoking history and normal lung coverage: 0.14 (0.01–1.52)
  OR estimate (95% CI) for acute ILD: Pre-existing IP (yes vs no): 4.49 (0.33–60.44)
  OR estimate (95% CI) for acute ILD: WHO performance status 1 vs 0: 0.55 (0.19–1.62)
  OR estimate (95% CI) for acute ILD: WHO performance status 2–3 vs 0: 1.37 (0.35–5.39)
  OR estimate (95% CI) for acute ILD: Age (≥55 vs <55 years): 1.54 (0.36–6.6)
[2]; Analysis 2 (PK parameter AUC0–24,ss), p<0.05
  OR estimate (95% CI) for acute ILD: Normal lung coverage (10%–50% vs 60%–100%): 9.47 (1.14–78.84)*
[2]; [10]
  OR estimate (95% CI) for acute ILD: AUC0–24,ss Quartile 2 vs Quartile 1: 1.2 (0.27–5.32)
  OR estimate (95% CI) for acute ILD: AUC0–24,ss Quartile 3 vs Quartile 1: 1.71 (0.42–6.94)
  OR estimate (95% CI) for acute ILD: AUC0–24,ss Quartile 4 vs Quartile 1: 2.09 (0.5–8.74)
[2]; [11]
  OR estimate (95% CI) for acute ILD: Duration of NSCLC ≥1 vs <0.5 years: 0.32 (0.12–0.83)
  OR estimate (95% CI) for acute ILD: Interaction of pre-existing IP and normal lung coverage: 0.51 (0.03–9.56)
  OR estimate (95% CI) for acute ILD: Interaction of smoking history and normal lung coverage: 0.56 (0.08–3.96)
  OR estimate (95% CI) for acute ILD: Normal lung coverage (10%–50% vs 60%–100%): 3.56 (0.64–19.85)
  OR estimate (95% CI) for acute ILD: Pre-existing IP (yes vs no): 3.56 (0.33–38.74)
  OR estimate (95% CI) for acute ILD: WHO performance status 1 vs 0: 0.62 (0.21–1.8)
  OR estimate (95% CI) for acute ILD: WHO performance status 2–3 vs 0: 1.89 (0.52–6.85)
  OR estimate (95% CI) for acute ILD: Age (≥55 vs <55 years): 2.13 (0.56–8.04)
[2]; [12]
  OR estimate (95% CI) for acute ILD: Cmax Quartile 2 vs Quartile 1: 0.51 (0.14–1.8)
  OR estimate (95% CI) for acute ILD: Cmax Quartile 3 vs Quartile 1: 0.5 (0.14–1.72)
  OR estimate (95% CI) for acute ILD: Cmax Quartile 4 vs Quartile 1: 3.03 (1–9.17)
[2]; [13]
  OR estimate (95% CI) for acute ILD: Duration of NSCLC ≥1 vs <0.5 years: 0.59 (0.2–1.75)
  OR estimate (95% CI) for acute ILD: Interaction of pre-existing IP and normal lung coverage: 0.18 (0.01–4.98)
  OR estimate (95% CI) for acute ILD: Interaction of smoking history and normal lung coverage: 0.17 (0.02–1.89)
  OR estimate (95% CI) for acute ILD: Pre-existing IP (yes vs no): 5.21 (0.39–70.35)
  OR estimate (95% CI) for acute ILD: WHO performance status 1 vs 0: 0.57 (0.19–1.68)
  OR estimate (95% CI) for acute ILD: WHO performance status 2–3 vs 0: 1.34 (0.33–5.39)
  OR estimate (95% CI) for acute ILD: Age (≥55 vs <55 years): 1.69 (0.4–7.17)
[2]; Analysis 4 (PK parameter Cmax,ss), p<0.05
  OR estimate (95% CI) for acute ILD: Normal lung coverage (10%–50% vs 60%–100%): 9.4 (1.11–79.48)*
[2]; [14]
  OR estimate (95% CI) for acute ILD: Cmax,ss Quartile 2 vs Quartile 1: 0.69 (0.16–3.02)
  OR estimate (95% CI) for acute ILD: Cmax,ss Quartile 3 vs Quartile 1: 1.72 (0.47–6.27)
  OR estimate (95% CI) for acute ILD: Cmax,ss Quartile 4 vs Quartile 1: 1.07 (0.27–4.29)
CYP3A4
  enzyme involved in the metabolic clearance: CYP3A4 is the major enzyme
[3]; gefitinib 250 mg in the presence of itraconazole
  increase of AUC of gefitinib: 78%
[3]; gefitinib 500 mg in the presence of itraconazole
  increase of AUC of gefitinib: 61%
[4]
  decrease of bioavailability: 47%
[5]; at the time of ILD development, population pharmacokinetic analysis
  decrease of CL/F: 25.7%
[5]; base in CL/F equation (AGE ≥ 65 term, CL/F declined in elderly)
  θ3: 0.759
[5]; base in CL/F equation (PERI, at the time of ILD diagnosis)
  θ6: 0.743
[5]; exponent in CL/F equation (body weight term)
  θ5: 0.503
[5]; typical value term of the CL/F equation (equation is drawing C00001), population estimate
  θ1: 28.6
[5]; typical value term of the V/F equation (equation is drawing C00002), population estimate
  θ7: 1540
